Test results reported in patent publication US20140187556A1, “ANTI-AMYLOID COMPOUNDS AND METHODS” (Treventis Corporation, priority 2011, published 2014).

Columns and labels:
Aβ40 = biological target: T1, Aβ40 (Homo sapiens, UniProt P05067); assay: Thioflavin T (ThT) Aβ aggregation assay; format: biochemical; settings: 20 μM Aβ40, 37 degrees C
T1 construct: pre-treated Aβ40 (40 μM in 20 mM Tris, pH 7.4)
How it was run: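 Aβ40 was HFIP-pretreated to remove preformed aggregates; 20 µM Aβ40 incubated with compound and 4 µM ThT in 20 mM Tris pH 7.4, 150 mM NaCl, 1% DMSO at 37 °C. Fluorescence (ex 450/em 480 nm) read every 15 min after shaking; inhibition judged by attenuated fluorescence rise versus DMSO controls.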

Tau441 = Tau441 (Homo sapiens, UniProt P10636); assay: Thioflavin S (ThS) tau aggregation assay; format: biochemical; settings: 20 μM, FIG. 1
Description: Analogous to the method of Example 1, the ability of compounds to inhibit the aggregation of tau was performed by substituting […] with tau and Thioflavin T with Thioflavin S.

alpha-synuclein = alpha-synuclein (Homo sapiens, UniProt P37840); assay: alpha-synuclein aggregation assay (ThT, analogous to Example 1); format: biochemical; settings: 10 μM compound
Description: Analogous to the method of Example 1, the ability of compounds to inhibit the aggregation of alpha-synuclein was performed by substituting Aβ with alpha-synuclein.

[1] = Blood-brain barrier penetration potential using MDR1-MDCK cell monolayers; format: in vitro ADME; settings: dog
Excerpt: This assay is used to determine the blood-brain barrier (BBB) penetration potential of a test compound using MDR1-MDCK cell monolayers. Further details on this method may be found in Taub M E, et al., Functional assessment of multiple Pglycoprotein (P-gp) probe substrates: Influence of cell line and modulator concentration on P-gp activity. Drug Metab Dispos. 2005 November; 33(11): 1679-87 and Wang Q, et al., Evaluation of the MDR-MDCK cell line as a permeability screen for the blood-brain barrier. Int J. Pharm. 2005 Jan. 20; 288(2):349-59; each of which is hereby incorporated by reference. Test compound was formulated in 300 μL of DMSO at 10 mM and diluted to 5 μM in HBSSg with maximum DMSO concentration not greater than 1%. Confluent monolayers of MDR1-MDCK cells, 7 to 11 days old, were used. A receiver well, having apical and basolateral sides at pH 7.4, was used with 1% BSA in modified Hanks buffer (HBSSg). Two monolayers were dosed with test compound in each direction (N=2). Apical side dosing was used for A-B assessment and basolateral side was used for B-A assessment; taken together, this information provides a bidirectional permeability potential. Apical and basolateral sides were sampled at 120 minutes and concentrations of test compound were determined using an LC-MS/MS method with a minimum 4 point calibration curve. Apparent permeability (Papp) in both directions (A-B and B-A) was calculated, as was the efflux ratio (Papp B-A)/(Papp A-B).

5xFAD mouse = assay: In vivo efficacy trial in the 5xFAD transgenic AD mouse model; settings: wildtype littermate mice
Excerpt: The 5xFAD mouse (B6SJL-Tg(SwFLon,PSEN1*M 146L*L286V)6799Vas/J; JAX #006554) overexpresses human APP(695) with the Swedish (K670N,M671L), Florida (I716V) and London (V717I) familial AD (FAD) mutations, as well as human presenilin 1 (PSI) with two FAD mutations (M 146L and L286V). These five mutations act additively, leading to large and rapid age-related increases in neuronal Aβ-40 and Aβ-42 peptides beginning at 2 months of age. […] Extra-cellular Aβ plaques are first observed in the hippocampus, subiculum, frontal cortex and spinal cord at 2-3 months of age and increase with age. No neurofibrillary tangles (tau) are observed in the brains of 5xFAD mice. […] Active astrocytes are commonly found surrounding β-amyloid plaques and levels of the pre-synaptic marker synaptophysin are decreased, indicating a decrease in synaptic connectivity to the 5xFAD mouse (Oakley et al., 2006). […] Age-related cognitive impairment in visuo-spatial working memory in the Y-maze occurs at 4-5 months of age. […]
The general procedure for an in vivo efficacy trial with 5xFAD mice is as follows. […] After behavioral testing, mice are sacrificed and their blood and brains assessed for Aβ levels.

Sequence of Tau441 (P10636 1-441 isoform P10636-8): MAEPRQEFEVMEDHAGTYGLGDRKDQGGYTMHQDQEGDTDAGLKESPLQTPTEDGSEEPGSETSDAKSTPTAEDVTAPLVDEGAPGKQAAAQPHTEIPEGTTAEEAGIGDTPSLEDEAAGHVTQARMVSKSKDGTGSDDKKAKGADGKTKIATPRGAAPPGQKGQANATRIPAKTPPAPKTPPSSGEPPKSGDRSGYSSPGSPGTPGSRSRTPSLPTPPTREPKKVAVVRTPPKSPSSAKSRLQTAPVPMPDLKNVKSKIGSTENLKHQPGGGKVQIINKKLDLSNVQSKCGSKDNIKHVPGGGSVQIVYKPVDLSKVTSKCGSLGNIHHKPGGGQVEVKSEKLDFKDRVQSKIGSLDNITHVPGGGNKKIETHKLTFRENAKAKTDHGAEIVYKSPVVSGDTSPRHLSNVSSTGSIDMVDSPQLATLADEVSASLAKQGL
T1 sequence (P05067 672-711 limits assumed): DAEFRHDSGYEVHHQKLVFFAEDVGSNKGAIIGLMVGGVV

IC50 (Aβ40): 3.09 ± 0.21 µM | relative potency in tau aggregation assay (lower fluorescence is better) (Tau441): Most potent | Papp A→B at 120 min, 5 µM ([1]; MDCK-MDR1, apical dosing, pH 7.4, read-out: Papp A-B × 10^−6 cm/s): 15.3 ×10⁻⁶ cm/s | Papp B→A at 120 min, 5 µM ([1]; MDCK-MDR1, basolateral dosing, pH 7.4, read-out: Papp B-A × 10^−6 cm/s): 12.4 ×10⁻⁶ cm/s | efflux ratio at 120 min, 5 µM ([1]; MDCK-MDR1, pH 7.4, read-out: Efflux ratio (Papp B-A)/(Papp A-B)): 0.8 | behavioural performance, WT with compound versus WT with vehicle (5xFAD mouse): no difference in behavioural performance
SMILES: O=[N+]([O-])c1ccc(-c2cccc(C(O)C(F)(F)F)c2)cc1NCc1ccccc1 (stereo not shown) [TRV 1140, 1-(3′-(benzylamino)-4′-nitro-[1,1′-biphenyl]-3-yl)-2,2,2-trifluoroethanol]
inhibition of alpha-synuclein aggregation (alpha-synuclein): inhibit alpha-synuclein aggregation at 10 μM
